Measured values taken from US20160340732A1, “COMPOSITIONS AND METHODS FOR DIAGNOSING AND TREATING NUCLEOTIDE REPEAT DISORDERS” (University of Virginia Patent Foundation, priority 2015, published 2016).

Tests used:
NETO1 mRNA = NETO1 mRNA levels in astrocytes transfected with miR-762 mimic, inhibitor or scrambled miR; type: cell-based; conditions: non-diseased astrocytes transfected with 400 nM, vs scrambled miR (FIG. 15)
Description: De novo introduction of the expanded repeat into naïve wild-type cells to induce NETO1 expression will be evaluated. […] NETO1 is not a predicted target of miR-762 by traditional in silico analysis (which relies on 3′ UTR analysis). However, a (C4G2)3 site 149 base pairs upstream of the NETO1 5′ UTR was identified that appeared significant both for its perfect replication of the C9 antisense expansion and its predicted tight pairing to miR-762 (RegRNA database: http://regrna.mbc.nctu.edu.tw/html/prediction.html). miR binding and regulation of transcripts in the 5′ region is poorly understood, but is known to occur. miR-762 may be able to bind and downregulate NETO1 transcript levels. To assess this, non-diseased astrocytes were transfected with 400 nM miR-762 mimic, miR-762 inhibitor, or scrambled miR. […] If NETO1 regulation is involved in FTLD-MND glutamate excitotoxicity, then targeting miR-762 regulation of the transcript could represent a possible therapeutic angle.

miR-762 = miR-762 levels in cells exposed to HDAC inhibitors; type: cell-based; conditions: mouse C2C12 cells, TSA 50 nM vs DMSO, 48 hours (FIG. 7)
Experimental: Epigenetic drugs increasing expression of miR-15 family members levels or miR762 are anticipated to have therapeutic potential. Importantly, these drugs are generally safe, and could influence NRDs even with small changes in miR levels. No regulators of miR-762 have been published, so whether candidate drugs might alter miR-762 levels in vitro were assessed. Cells were exposed to vehicle, trichostatin A (TSA, an HDAC inhibitor and antifungal agent), and valproate (an epilepsy drug, mood stabilizer, and weaker HDAC inhibitor). TSA increased miR-762 levels 65-fold (FIG. 7).

Compound	NETO1 mRNA level (NETO1 mRNA)	increase of miR-762 levels (miR-762)
miR-762: miR-762 mimic transfected at 400 nM; miRNA sequence SEQ ID NO: 5 (Table 1) (CGAGCCGGGGCCGGGGUCGGGG; listed as RNA, chemistry not given here; listed as Homo sapiens)	reproducible and significant downregulation	–
CC(/C=C/C(=O)NO)=C\[C@@H](C)C(=O)c1ccc(N(C)C)cc1 [TSA, trichostatin A]	–	65 fold
